Reference: patent publication US20140155445A1, “Compounds and Methods for Treating Cancer and Diseases of the Central Nervous System” (Osta Biotechnologies Inc., priority 2007, published 2014)

Key:
[1] = molecular target: T1, HO-1 (rat spleen) (Rattus norvegicus, UniProt P06762); experiment: HO enzymatic activity in rat spleen microsomal fraction (CO formed from methemalbumin, gas chromatography); assay type: biochemical; settings: rat spleen microsomes; average ± standard deviation of replicate experiments; read-out: IC50 HO-1 (rat spleen)/μM
T1 construct: Spleen microsomes were used as a source of HO-1; from tissue; host or cells: spleen microsomal fraction of adult male Sprague-Dawley rats
T1 sequence (P06762 1-289): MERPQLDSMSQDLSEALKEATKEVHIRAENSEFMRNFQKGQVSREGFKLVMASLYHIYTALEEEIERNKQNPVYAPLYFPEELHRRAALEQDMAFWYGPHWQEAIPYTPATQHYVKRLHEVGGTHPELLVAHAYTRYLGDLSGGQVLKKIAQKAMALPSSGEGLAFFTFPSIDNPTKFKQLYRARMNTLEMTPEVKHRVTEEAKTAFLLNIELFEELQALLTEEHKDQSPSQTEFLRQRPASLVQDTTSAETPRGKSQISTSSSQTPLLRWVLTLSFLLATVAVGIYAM

[2] = system: Panc-1 human pancreatic carcinoma cells; experiment: Human pancreatic cancer model Panc-1 in SCID mice; assay type: in vivo; settings: 30 and 60 mg/kg i.p.
Excerpt: Human pancreatic carcinoma cells (“Panc-1 cells”) were originally received from the ATCC (American Type Culture Collection).
Only those cells with >95% viability were used for in-vivo studies.
Once tumors reached a size of approximately 0.7 cm^3, they were removed under sterile condition, sliced into small pieces under a stereo-microscope. Each tissue piece was then reinoculated subcutaneously. Only pieces of approximately the same size and with no signs of necrosis were used.
At the end of the experiment, mice were sacrificed by cervical dislocation and full autopsies were conducted. A picture was taken of tumors from randomly selected mice. The tumors were then fixed in formalin for pathology examination.

[3] = system: SKMEL 28-V+ cells (human melanoma); experiment: Melanoma model SKMEL-V+ in SCID mice (combination study); assay type: in vivo; settings: QC-56 60 mg/kg/ip; Dacarbazine 55 mg/kg
Protocol: SKMEL 28-V+ cells (human melanoma). These cells were originally from the ATCC and then engineered to overexpress VEGF. […] The cells were tested to be free of mycoplasma.
Control groups received the vehicle alone.

[4] = system: human metastatic prostate cancer PC-3M cells; experiment: Orthotopic PC-3M prostate cancer model in SCID mice; assay type: in vivo
Excerpt: PC-3 & PC-3M (human prostate carcinoma). The PC-3 human prostate cancer cell line was originally obtained from the American Type Culture Collection (Rockville, Md.). The PC-3M cell line was kindly provided by Dr. Issac (MD Anderson Cancer Center). This cell variant was derived from a liver metastasis produced by the parental PC-3 cells growing in the spleen of a nude mouse [Pettaway C A, Pathak S, Greene G, et al. Selection of highly metastatic variants of different human prostate carcinomas utilizing orthotopic implantation in nude mice.
Male SCID mice were housed in laminar flow under specific pathogen-free conditions and used at 8-9 weeks of age. Animals were maintained in the LDI facilities approved by the Laboratory Animal Care in accordance with current Canadian regulations and standards for the use of animals for research.
Mice were anesthesized with isofluorane given by inhalation and placed in a supine position. […] A low midline incision was made and the prostate was exposed. Fifty microliters of HBSS containing 1×10^6 cells was injected into a lateral lobe of the prostate. The wound was closed with surgical metal clips in two layers, the muscle layer first and then the skin layer using stainless steel clips (autoclips: 9 mm; Clay Adams Inc., Parsippany, N.J.). […] Control groups received the vehicle alone. Taxol™ was given either ip or iv as indicated.
Primary tumors in the prostate were excised, measured, and weighed. When applicable, immunohistochemistry and H&E staining were conducted on one part of the tumor, fixed in formalin and embedded in paraffin or OCT compound (Miles Inc., Elkhart, Ind.); the later was rapidly frozen in liquid nitrogen, and stored at −70° C. Macroscopically enlarged regional lymph nodes were harvested and the presence of metastatic disease was confirmed by histology.
The in vivo data was analyzed using the Mann-Whitney U test.

[5] = QC-56 30 mg/kg intraperitoneally daily for 12 days, Taxol 10 mg/kg i.p. 3 cycles
[6] = QC-56 30 mg/kg intravenously daily for 12 days, Taxol 10 mg/kg i.p. 3 cycles

Brc1ccc(CCC2(Cn3ccnc3)OCCO2)cc1.Cl [QC-56, 1-((2-(2-(4-Bromophenyl)ethyl)-1,3-dioxolan-2-yl)methyl)-1H-imidazole hydrochloride]
IC50 [1]: 1.9 ± 0.2 µM
anti-tumor activity [2]: not in the pancreatic cancer model Panc-1
inhibition of tumor growth compared to vehicle alone [3]: approximately 42%
tumor size on the day of sacrifice [3]: 1.03±0.16 cm^3
inhibition of tumor growth [4, 5]: 34%
reduction in microscopic lymph node metastases [4, 5]: 59%
inhibition of tumor growth [4, 6]: 58%
reduction in microscopic lymph node metastases [4, 6]: 76%
reduction in microscopic lymph node metastases ([4]; QC-56 40 mg/kg daily for 24 days, Taxol 10 mg/kg, 4 cycles): 48%
inhibition of tumor growth compared to untreated mice ([4]; QC-56 40 mg/kg daily for 24 days, Taxol 10 mg/kg, 4 cycles, 3 administrations per cycle): 35%
